Data from ChEMBL document CHEMBL1201862, “PubChem BioAssay data set” (2004).
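Cultured in 96-well plates, cells were exposed to test compound for 48 hours across five concentrations. GI50 = concentration required for 50% inhibition of growth.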 The source made the active and inactive calls. Rule as the data show it: active = GI50 up to about 1.1 µM and inactive = higher.

Experiments:
Experiment in all cases: NCI-60 cell line screen, 48 h
CAKI-1 = system: CAKI-1
DLD-1 = system: DLD-1
HCT-15 = system: HCT-15
HL-60 = system: HL-60
HOP-62 = system: HOP-62
M19-MEL = system: M19-MEL
Malme-3M = system: Malme-3M
NCI-H460 = system: NCI-H460
OVCAR-4 = system: OVCAR-4
OVCAR-5 = system: OVCAR-5
SF-295 = system: SF-295
SK-MEL-28 = system: SK-MEL-28
SK-MEL-2 = system: SK-MEL-2
SN12C = system: SN12C
TK-10 = system: TK-10
U-251 = system: U-251
UO-31 = system: UO-31
XF498 = system: XF498

| SMILES | GI50 (CAKI-1) | GI50 (DLD-1) | GI50 (HCT-15) [µM] | GI50 (HL-60) | GI50 (HOP-62) | GI50 (M19-MEL) | GI50 (Malme-3M) | GI50 (NCI-H460) | GI50 (OVCAR-4) | GI50 (OVCAR-5) | GI50 (SF-295) | GI50 (SK-MEL-28) | GI50 (SK-MEL-2) | GI50 (SN12C) | GI50 (TK-10) | GI50 (U-251) | GI50 (UO-31) | GI50 (XF498) |
| --- | --- | --- | --- | --- | --- | --- | --- | --- | --- | --- | --- | --- | --- | --- | --- | --- | --- | --- |
| CC(=O)OCC1OC(n2cnc3c(I)nc(I)nc32)C(OC(C)=O)C1OC(C)=O (stereo not given) | 2.02 µM (inactive) | 10.8 µM (inactive) | 4.58 | 2.47 µM (inactive) | 18.8 µM (inactive) | 3.66 µM (inactive) | 18.7 µM (inactive) | 17.7 µM (inactive) | 4.71 µM (inactive) | 20.8 µM (inactive) | 20.5 µM (inactive) | 14.9 µM (inactive) | 17.1 µM (inactive) | 13.5 µM (inactive) | 19.3 µM (inactive) | 10.4 µM (inactive) | 17.7 µM (inactive) | 20.9 µM (inactive) |
| COC(=O)/C(=C1\OC(=O)C(c2ccc(Cl)cc2)=C1O)c1ccc(Cl)cc1 | 23 µM (inactive) | 29.4 µM (inactive) | – | 7.6 µM (inactive) | 17.7 µM (inactive) | 22.1 µM (inactive) | 16.2 µM (inactive) | 26.1 µM (inactive) | 9.71 µM (inactive) | 31.5 µM (inactive) | 19.2 µM (inactive) | 31 µM (inactive) | – | 30.5 µM (inactive) | 31 µM (inactive) | 24.3 µM (inactive) | 28.7 µM (inactive) | 16.9 µM (inactive) |
| Cc1c2ccncc2c(C)c2c1[nH]c1ccc(O)c(OCC(F)(F)F)c12 | 9.62 µM (inactive) | 8 µM (inactive) | – | 2.9 µM (inactive) | 10.8 µM (inactive) | – | 11.9 µM (inactive) | 2.18 µM (inactive) | 4.08 µM (inactive) | 12.6 µM (inactive) | 5.21 µM (inactive) | 10.8 µM (inactive) | 12 µM (inactive) | 8.2 µM (inactive) | 13.6 µM (inactive) | 2.7 µM (inactive) | 9.66 µM (inactive) | 12.6 µM (inactive) |
| COC(=O)C(C(=O)C(=O)Nc1c(Cl)cc([N+](=O)[O-])cc1Cl)c1csc(-n2nc(C3=CCCCC3)cc2-c2ccccc2)n1 (stereo not given) | 46.9 µM (inactive) | 28.8 µM (inactive) | 36.2 | 40 µM (inactive) | 64.9 µM (inactive) | 52.7 µM (inactive) | > 100 µM (inactive) | 82.8 µM (inactive) | > 100 µM (inactive) | 35 µM (inactive) | 43.8 µM (inactive) | – | > 100 µM (inactive) | 67.9 µM (inactive) | 64.9 µM (inactive) | > 100 µM (inactive) | 25.9 µM (inactive) | – |
| CC(C)(C)N/N=C(\Cc1occc(=O)c1O)C(=O)Nc1ccc([N+](=O)[O-])cc1[N+](=O)[O-] | > 100 µM (inactive) | – | > 100 | > 100 µM (inactive) | > 100 µM (inactive) | > 100 µM (inactive) | > 100 µM (inactive) | > 100 µM (inactive) | > 100 µM (inactive) | > 100 µM (inactive) | > 100 µM (inactive) | > 100 µM (inactive) | > 100 µM (inactive) | > 100 µM (inactive) | > 100 µM (inactive) | > 100 µM (inactive) | > 100 µM (inactive) | > 100 µM (inactive) |
| CC1(C)C2C=CC1C(=O)CC2 (stereo not given) | > 100 µM (inactive) | > 100 µM (inactive) | > 100 | > 100 µM (inactive) | > 100 µM (inactive) | – | > 100 µM (inactive) | > 100 µM (inactive) | > 100 µM (inactive) | > 100 µM (inactive) | > 100 µM (inactive) | > 100 µM (inactive) | > 100 µM (inactive) | – | > 100 µM (inactive) | > 100 µM (inactive) | > 100 µM (inactive) | > 100 µM (inactive) |
| CCOC(=O)CCn1[nH]c(=O)c(Cl)c(Cl)c1=O | > 100 µM (inactive) | > 100 µM (inactive) | > 100 | > 100 µM (inactive) | > 100 µM (inactive) | > 100 µM (inactive) | > 100 µM (inactive) | > 100 µM (inactive) | > 100 µM (inactive) | > 100 µM (inactive) | > 100 µM (inactive) | > 100 µM (inactive) | > 100 µM (inactive) | > 100 µM (inactive) | > 100 µM (inactive) | > 100 µM (inactive) | > 100 µM (inactive) | > 100 µM (inactive) |
| COC(=O)C1CCC2(CC1)NC(=O)NC2=O (stereo not given) | > 100 µM (inactive) | > 100 µM (inactive) | – | > 100 µM (inactive) | > 100 µM (inactive) | > 100 µM (inactive) | > 100 µM (inactive) | > 100 µM (inactive) | > 100 µM (inactive) | > 100 µM (inactive) | > 100 µM (inactive) | > 100 µM (inactive) | > 100 µM (inactive) | > 100 µM (inactive) | > 100 µM (inactive) | > 100 µM (inactive) | > 100 µM (inactive) | > 100 µM (inactive) |
| CC1CCC(C(C)C)C(O[C@@H]2OC(=O)C[C@@H]2Sc2ccccc2)C1 (stereo not given in full) | 23.3 µM (inactive) | 33.1 µM (inactive) | 19.5 | 18.2 µM (inactive) | 32.1 µM (inactive) | 24 µM (inactive) | 18.5 µM (inactive) | 24.5 µM (inactive) | 15.9 µM (inactive) | 43 µM (inactive) | 21.1 µM (inactive) | 22.3 µM (inactive) | 17.5 µM (inactive) | 16.8 µM (inactive) | 53.3 µM (inactive) | > 10 µM (inactive) | > 10 µM (inactive) | – |
| CC1(C)OCC(C(O)C2OC(C)(C)OC2/C=N\O)O1 (stereo not given) | – | > 100 µM (inactive) | – | > 100 µM (inactive) | > 100 µM (inactive) | > 100 µM (inactive) | > 100 µM (inactive) | > 100 µM (inactive) | – | > 100 µM (inactive) | > 100 µM (inactive) | > 100 µM (inactive) | > 100 µM (inactive) | – | > 100 µM (inactive) | > 100 µM (inactive) | > 100 µM (inactive) | > 100 µM (inactive) |
| CCC(C)(C)NC1=C(NC(C)=O)C(=O)c2ccccc2C1=O | – | 43.1 µM (inactive) | 32.9 | 16.7 µM (inactive) | > 75 µM (inactive) | 13.3 µM (inactive) | 28.7 µM (inactive) | 39.5 µM (inactive) | > 75 µM (inactive) | – | > 75 µM (inactive) | 61.5 µM (inactive) | 21 µM (inactive) | > 75 µM (inactive) | > 75 µM (inactive) | 36.1 µM (inactive) | 27.5 µM (inactive) | 14.4 µM (inactive) |
| OCC1=CC(NC2CC(CO)C(O)C(O)C2O)C(O)C(O)C1O (stereo not given) | – | > 100 µM (inactive) | > 100 | – | > 100 µM (inactive) | > 100 µM (inactive) | > 100 µM (inactive) | > 100 µM (inactive) | – | – | > 100 µM (inactive) | > 100 µM (inactive) | – | > 100 µM (inactive) | > 100 µM (inactive) | > 100 µM (inactive) | > 100 µM (inactive) | 64.9 µM (inactive) |
| O=C(O/N=C1\CCCC\C1=C/c1ccccc1)c1ccc([N+](=O)[O-])cc1 | > 100 µM (inactive) | 80 µM (inactive) | > 100 | 76.9 µM (inactive) | > 100 µM (inactive) | > 100 µM (inactive) | > 100 µM (inactive) | > 100 µM (inactive) | 33.1 µM (inactive) | > 100 µM (inactive) | 69.8 µM (inactive) | > 100 µM (inactive) | > 100 µM (inactive) | > 100 µM (inactive) | – | 86.3 µM (inactive) | 98.4 µM (inactive) | – |
| O=C1CCC(c2nc3cc(Cl)ccc3o2)C(=O)N1 (stereo not given) | > 100 µM (inactive) | > 100 µM (inactive) | > 100 | > 100 µM (inactive) | > 100 µM (inactive) | > 100 µM (inactive) | > 100 µM (inactive) | > 100 µM (inactive) | > 100 µM (inactive) | > 100 µM (inactive) | > 100 µM (inactive) | > 100 µM (inactive) | > 100 µM (inactive) | > 100 µM (inactive) | > 100 µM (inactive) | > 100 µM (inactive) | > 100 µM (inactive) | – |
| COC1=CC(=O)[C@]2(C)[C@H](C1=O)C(C)[C@H]2c1ccccc1 (stereo not given in full) | > 100 µM (inactive) | > 100 µM (inactive) | > 100 | > 100 µM (inactive) | > 100 µM (inactive) | > 100 µM (inactive) | > 100 µM (inactive) | > 100 µM (inactive) | > 100 µM (inactive) | > 100 µM (inactive) | > 100 µM (inactive) | > 100 µM (inactive) | > 100 µM (inactive) | – | > 100 µM (inactive) | > 100 µM (inactive) | > 100 µM (inactive) | > 100 µM (inactive) |
| Sc1nnc(COc2ccc(Cl)cc2)o1 | > 100 µM (inactive) | > 100 µM (inactive) | 31.2 | > 100 µM (inactive) | > 100 µM (inactive) | > 100 µM (inactive) | > 100 µM (inactive) | > 100 µM (inactive) | > 100 µM (inactive) | > 100 µM (inactive) | > 100 µM (inactive) | > 100 µM (inactive) | – | > 100 µM (inactive) | > 100 µM (inactive) | > 100 µM (inactive) | > 100 µM (inactive) | – |
| CCOC(=O)CNc1nnnn1C1OC(CO)C(O)C1O (stereo not given) | > 100 µM (inactive) | > 100 µM (inactive) | > 100 | – | > 100 µM (inactive) | > 100 µM (inactive) | > 100 µM (inactive) | > 100 µM (inactive) | – | > 100 µM (inactive) | > 100 µM (inactive) | – | > 100 µM (inactive) | > 100 µM (inactive) | > 100 µM (inactive) | > 100 µM (inactive) | > 100 µM (inactive) | > 100 µM (inactive) |
